{"source": "patent US20060252800A1", "about": "“Anti-leishmania agent” (priority 2003, published 2006)", "tested_on": "Leishmania (L. major)", "experiment": "Leishmania protozoa proliferation inhibition assay", "type": "cell-based", "conditions": "for OD level (number of viable Leishmania protozoa): 48 hours at 27° C., absorbance 450 nm minus 630 nm; for IC50: calculated from the graphs of FIGS. 1 to 4 (concentration vs number of viable leishmania protozoa), read-out: Concentration inhibiting 50% leishmania proliferation", "method": "After dissolving each of the obtained compounds in dimethylsulfoxide (hereinafter referred to as DMSO), the resultant was diluted by 9 steps in Medium 199 medium (Invitrogen) to the indicated concentration, filtrated with a membrane filter, and each of the filtration was made as a sample solution. […] By keeping the solution at 27° C., incubation was performed under 5% CO2, for 48 hours. Then, TetraColor ONE (tradename: Seikagaku Corporation) reagent was added thereto and further incubated for 6 hours. Then, the absorbance at a wavelength of 450 nm was measured for the 96-well microtiter plate with a microplate reader, the wave length of 630 nm was made as reference wave length, and in order to exclude background effect, the absorbance at 630 nm was excluded from the one at 450 nm, and the OD level was calculated as a level to indicate the number of viable Leishmania protozoa. The assay was performed by three wells at a time for each concentration of each sample, and the mean level was made as OD level. […] Amphotericin B was used as positive control. […] Inhibiting effect against […] protozoa for each sample was similar or more compared with that of Amtephotericin B.", "key": {"[1]": {"conditions": "Table 3, sample concentration 0.001 mg/ml"}, "[2]": {"conditions": "Table 3, sample concentration 0.002165 mg/ml"}, "[3]": {"conditions": "Table 3, sample concentration 0.0072171 mg/ml"}, "[4]": {"conditions": "Table 3, sample concentration 0.02406 mg/ml"}, "[5]": {"conditions": "Table 3, sample concentration 0.08019 mg/ml"}, "[6]": {"conditions": "Table 3, sample concentration 0.2673 mg/ml"}, "[7]": {"conditions": "Table 3, sample concentration 0.891 mg/ml"}, "[8]": {"conditions": "Table 3, sample concentration 2.97 mg/ml"}, "[9]": {"conditions": "Table 3, sample concentration 9.9 mg/ml"}, "[10]": {"conditions": "Table 3, sample concentration 33 mg/ml"}}, "data": [{"smiles": "C[C@@H]1[C@H](O)[C@@H](C)/C=C/C=C/C=C/C=C/C=C/C=C/C=C/[C@H](O[C@@H]2O[C@H](C)[C@@H](O)[C@H](N)[C@@H]2O)C[C@@H]2O[C@](O)(C[C@@H](O)C[C@@H](O)[C@H](O)CC[C@@H](O)C[C@@H](O)CC(=O)O[C@H]1C)C[C@H](O)[C@H]2C(=O)O", "note": "[Amphotericin B, reference compound]", "values": [{"measurement": "OD level (number of viable Leishmania protozoa)", "setting": "Table 1, positive control line, concentration 0.001 mg/ml", "result": 0.428}, {"measurement": "OD level (number of viable Leishmania protozoa)", "setting": "Table 1, positive control line, concentration 0.0121094 mg/ml", "result": 0.394}, {"measurement": "OD level (number of viable Leishmania protozoa)", "setting": "Table 1, positive control line, concentration 0.0242188 mg/ml", "result": 0.373}, {"measurement": "OD level (number of viable Leishmania protozoa)", "setting": "Table 1, positive control line, concentration 0.0484375 mg/ml", "result": 0.352}, {"measurement": "OD level (number of viable Leishmania protozoa)", "setting": "Table 1, positive control line, concentration 0.096875 mg/ml", "result": 0.349}, {"measurement": "OD level (number of viable Leishmania protozoa)", "setting": "Table 1, positive control line, concentration 0.19375 mg/ml", "result": 0.044}, {"measurement": "OD level (number of viable Leishmania protozoa)", "setting": "Table 1, positive control line, concentration 0.3875 mg/ml", "result": 0.036}, {"measurement": "OD level (number of viable Leishmania protozoa)", "setting": "Table 1, positive control line, concentration 0.775 mg/ml", "result": 0.036}, {"measurement": "OD level (number of viable Leishmania protozoa)", "setting": "Table 1, positive control line, concentration 1.55 mg/ml", "result": 0.036}, {"measurement": "OD level (number of viable Leishmania protozoa)", "setting": "Table 1, positive control line, concentration 3.1 mg/ml", "result": 0.034}, {"measurement": "OD level (number of viable Leishmania protozoa)", "setting": "[1]", "result": 0.351}, {"measurement": "OD level (number of viable Leishmania protozoa)", "setting": "[2]", "result": 0.338}, {"measurement": "OD level (number of viable Leishmania protozoa)", "setting": "[3]", "result": 0.325}, {"measurement": "OD level (number of viable Leishmania protozoa)", "setting": "[4]", "result": 0.331}, {"measurement": "OD level (number of viable Leishmania protozoa)", "setting": "[5]", "result": 0.311}, {"measurement": "OD level (number of viable Leishmania protozoa)", "setting": "[6]", "result": 0.273}, {"measurement": "OD level (number of viable Leishmania protozoa)", "setting": "[7]", "result": 0.051}, {"measurement": "OD level (number of viable Leishmania protozoa)", "setting": "[8]", "result": 0.029}, {"measurement": "OD level (number of viable Leishmania protozoa)", "setting": "[9]", "result": 0.029}, {"measurement": "OD level (number of viable Leishmania protozoa)", "setting": "[10]", "result": 0.030}, {"measurement": "IC50", "result": 140, "unit": "nM"}]}, {"smiles": "CCn1c(=Cc2cc[n+](C)cc2)sc(=C2Sc3ccccc3N2C)c1=O.Cc1ccc(S(=O)(=O)[O-])cc1", "note": "[IV (j), 4-[(5-(3-methyl-2(3H)-benzothiazolylidene)-4-oxo-3-ethyl-2-thiazolidinylidene}methyl]-1-methylpyridinium=p-toluenesulfonate]", "values": [{"measurement": "OD level (number of viable Leishmania protozoa)", "setting": "Table 1, sample concentration 0.001 mg/ml", "result": 0.446}, {"measurement": "OD level (number of viable Leishmania protozoa)", "setting": "Table 1, sample concentration 0.016384 mg/ml", "result": 0.462}, {"measurement": "OD level (number of viable Leishmania protozoa)", "setting": "Table 1, sample concentration 0.04096 mg/ml", "result": 0.468}, {"measurement": "OD level (number of viable Leishmania protozoa)", "setting": "Table 1, sample concentration 0.1024 mg/ml", "result": 0.518}, {"measurement": "OD level (number of viable Leishmania protozoa)", "setting": "Table 1, sample concentration 0.256 mg/ml", "result": 0.661}, {"measurement": "OD level (number of viable Leishmania protozoa)", "setting": "Table 1, sample concentration 0.64 mg/ml", "result": 0.793}, {"measurement": "OD level (number of viable Leishmania protozoa)", "setting": "Table 1, sample concentration 1.6 mg/ml", "result": 0.551}, {"measurement": "OD level (number of viable Leishmania protozoa)", "setting": "Table 1, sample concentration 4 mg/ml", "result": 0.275}, {"measurement": "OD level (number of viable Leishmania protozoa)", "setting": "Table 1, sample concentration 10 mg/ml", "result": 0.188}, {"measurement": "OD level (number of viable Leishmania protozoa)", "setting": "Table 1, sample concentration 25 mg/ml, mean of three wells", "result": 0.057}, {"measurement": "IC50", "result": 10000, "unit": "nM"}]}, {"smiles": "CN1/C(=c2\\s/c(=C\\c3cccc[n+]3C)n(Cc3ccccc3)c2=O)Sc2ccccc21.Cc1ccc(S(=O)(=O)[O-])cc1", "note": "[I (a), 2-[{5-(3-methyl-2(3H)-benzothiazolylidene)-4-oxo-3-benzyl-2-thiazolidinylidene}methyl]-1-methylpyridinium=p-toluenesulfonate]", "values": [{"measurement": "OD level (number of viable Leishmania protozoa)", "setting": "Table 2, sample concentration 0.0001 mg/ml", "result": 0.356}, {"measurement": "OD level (number of viable Leishmania protozoa)", "setting": "Table 2, sample concentration 0.0007 mg/ml", "result": 0.361}, {"measurement": "OD level (number of viable Leishmania protozoa)", "setting": "Table 2, sample concentration 0.002 mg/ml", "result": 0.383}, {"measurement": "OD level (number of viable Leishmania protozoa)", "setting": "Table 2, sample concentration 0.008 mg/ml", "result": 0.469}, {"measurement": "OD level (number of viable Leishmania protozoa)", "setting": "Table 2, sample concentration 0.025 mg/ml", "result": 0.172}, {"measurement": "OD level (number of viable Leishmania protozoa)", "setting": "Table 2, sample concentration 0.084 mg/ml", "result": 0.088}, {"measurement": "OD level (number of viable Leishmania protozoa)", "setting": "Table 2, sample concentration 0.279 mg/ml", "result": 0.043}, {"measurement": "OD level (number of viable Leishmania protozoa)", "setting": "Table 2, sample concentration 0.93 mg/ml", "result": 0.034}, {"measurement": "OD level (number of viable Leishmania protozoa)", "setting": "Table 2, sample concentration 3.1 mg/ml", "result": 0.035}, {"measurement": "OD level (number of viable Leishmania protozoa)", "setting": "Table 2, sample concentration 2E−04 mg/ml", "result": 0.356}, {"measurement": "IC50", "result": 410, "unit": "nM"}]}, {"smiles": "CCn1c(=Cc2sc3ccccc3[n+]2C)sc(=C2Sc3ccc4ccccc4c3N2C)c1=O.Cc1ccc(S(=O)(=O)[O-])cc1", "note": "[IV (m), 2-[{5-(3-methyl-2(3H)-benzobenzo[e]thiazolilidene)-4-oxo-3-ethyl-2-thiazolidinylidene}methyl]-1-methylbenzothiazolium=p-toluenesulfonate]", "values": [{"measurement": "OD level (number of viable Leishmania protozoa)", "setting": "[1]", "result": 0.340}, {"measurement": "OD level (number of viable Leishmania protozoa)", "setting": "[2]", "result": 0.344}, {"measurement": "OD level (number of viable Leishmania protozoa)", "setting": "[3]", "result": 0.342}, {"measurement": "OD level (number of viable Leishmania protozoa)", "setting": "[4]", "result": 0.354}, {"measurement": "OD level (number of viable Leishmania protozoa)", "setting": "[5]", "result": 0.379}, {"measurement": "OD level (number of viable Leishmania protozoa)", "setting": "[6]", "result": 0.422}, {"measurement": "OD level (number of viable Leishmania protozoa)", "setting": "[7]", "result": 0.385}, {"measurement": "OD level (number of viable Leishmania protozoa)", "setting": "[8]", "result": 0.149}, {"measurement": "OD level (number of viable Leishmania protozoa)", "setting": "[9]", "result": 0.033}, {"measurement": "OD level (number of viable Leishmania protozoa)", "setting": "[10]", "result": 0.027}, {"measurement": "IC50", "result": 2700, "unit": "nM"}]}]}
